In the assay the target is T1, MshC (Mycobacterium tuberculosis, UniProt P9WJM9).
T1 sequence (P9WJM9 1-414): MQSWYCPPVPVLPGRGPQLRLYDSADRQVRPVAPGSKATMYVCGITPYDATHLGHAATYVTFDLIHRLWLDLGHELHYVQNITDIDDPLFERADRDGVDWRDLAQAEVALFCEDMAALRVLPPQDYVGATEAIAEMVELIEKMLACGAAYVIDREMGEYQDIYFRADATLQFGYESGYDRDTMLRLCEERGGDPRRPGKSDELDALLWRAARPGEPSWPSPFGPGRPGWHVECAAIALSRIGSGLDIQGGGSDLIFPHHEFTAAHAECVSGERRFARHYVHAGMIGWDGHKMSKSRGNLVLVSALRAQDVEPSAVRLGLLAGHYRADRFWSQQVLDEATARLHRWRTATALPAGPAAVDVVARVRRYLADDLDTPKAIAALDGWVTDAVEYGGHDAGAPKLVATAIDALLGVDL
Kind of assay: biochemical. In kind it is biochemical, M. tuberculosis.

Experimental findings from US20100022509A1, “Inhibitors of MshC and Homologs Thereof, and Methods of Identifying Same” (priority 2006, published 2010) are described below.

In general, IC50 refers to the concentration needed to halve the response being measured.

Where two headings read alike, the source gives them in different places.

As for `Nc1ncnc2c1ncn2[C@@H]1O[C@H](COS(=O)(=O)NC(=O)[C@@H](N)CS)[C@@H](O)[C@H]1O` [5′-O-[N-(L-cysteinyl)sulfamoyl]adenosine, reference compound], the half-maximal inhibitory concentration (IC50) (assayed under the conditions described in [0186], read-out: IC50 (inhibits MshC)) is roughly 4e-05 mM. `CCC1CCCCN1CCCNC(=O)c1ccc2c(c1)N(Cc1ccccc1F)C(=O)c1ccccc1[S+]2[O-]` (stereo not drawn) [Inhibitor 83-01] yielded an IC50 (IC50) greater than 3 mM. Take `O=C(NCCCN1CCC(Cc2ccccc2)CC1)c1ccc2c(c1)N(Cc1ccccc1F)C(=O)c1ccccc1[S+]2[O-]` (stereo not drawn) [Inhibitor 83-02]: the “inhibition of MshC in words, compounds lacking the basic amino group or with groups in excess of 10 carbons on the remote amino residue” value (from here on “inhibition of MshC … on the remote amino residue”) is recorded as “little or no inhibition”. This compound displayed an IC50 (IC50) greater than 3 mM.

For `CN(CCCNC(=O)c1ccc2c(c1)N(Cc1ccccc1F)C(=O)c1ccccc1[S+]2[O-])C1CCCCC1` (stereo not drawn) [Inhibitor 83-03], the half-maximal inhibitory concentration (IC50) (IC50) is greater than 3 mM. Same read-out and setting: to `O=C(NCCCSC1CCCCC1)c1ccc2c(c1)N(Cc1ccccc1F)C(=O)c1ccccc1[S+]2[O-]` (stereo not drawn) [Inhibitor 83-04] belongs greater than 3 mM; to `CCCN(CCC)CCCNC(=O)c1ccc2c(c1)N(Cc1ccc(F)cc1)C(=O)c1ccccc1[S+]2[O-]` (stereo not drawn) [Inhibitor 83-05], greater than 3 mM. Under “IC50”, `CCN(CC)CCCNC(=O)c1ccc2c(c1)N(Cc1cc(C)ccc1C)C(=O)c1ccccc1[S+]2[O-]` (stereo not drawn) [Inhibitor 83-06] returned an IC50 greater than 3 mM. For the compound `Cc1ccc(C)c(CN2C(=O)c3ccccc3[S+]([O-])c3ccc(C(=O)NCCCN4CCCCCC4)cc32)c1` (stereo not drawn) [Inhibitor 83-07], the “inhibition of MshC in words, 1,3-diaminopropyl residue with remote amino residue capable of protonation” value (shortened to “inhibition of MshC in words … of protonation”) was “measurable inhibition” and the “inhibition of MshC in words, Z benzyl moiety with methyl groups in the 2,5 positions or unsubstituted” value is “Weak but detectable inhibition”. Under “IC50”, this compound gave a half-maximal inhibitory concentration (IC50) of 0.65 ± 0.05 mM. In addition, the “inhibition of MshC in words, compounds grouped by X” value (“inhibition of MshC in words … by X” below) (X=S, X=SO, X=SO2) is “Significant inhibition”. For `Cc1ccc(C)c(CN2C(=O)c3ccccc3[S+]([O-])c3ccc(C(=O)NCCCN(C)C4CCCCC4)cc32)c1` (stereo not drawn) [Inhibitor 83-08], where the note is “IC50”, the IC50 was roughly 3 mM. Also, the “inhibition of MshC in words … by X” value (X=S, X=SO, X=SO2) is “Significant inhibition”. For `Cc1ccc(C)c(CN2C(=O)c3ccccc3[S+]([O-])c3ccc(C(=O)NCCCSC4CCCCC4)cc32)c1` (stereo not drawn) [Inhibitor 83-09], the IC50 (IC50) was greater than 3 mM. For the compound `O=C(NCCCN1CCOCC1)c1ccc2c(c1)N(Cc1ccccc1)C(=O)c1ccccc1[S+]2[O-]` (stereo not drawn) [Inhibitor 83-10], the IC50 (IC50) is greater than 3 mM.

Turning to `CN(CCCNC(=O)c1ccc2c(c1)N(Cc1ccccc1)C(=O)c1ccccc1[S+]2[O-])C1CCCCC1` (stereo not drawn) [Inhibitor 83-11], the “inhibition of MshC in words … of protonation” value is reported as “measurable inhibition”. For the same compound, the IC50 (IC50) worked out at 0.4 ± 0.1 mM. For the same compound, the “inhibition of MshC in words … by X” value (X=S, X=SO, X=SO2) is “Significant inhibition”. As for `O=C(NCCCSC1CCCCC1)c1ccc2c(c1)N(Cc1ccccc1)C(=O)c1ccccc1[S+]2[O-]` (stereo not drawn) [Inhibitor 83-12], the “inhibition of MshC … on the remote amino residue” value is listed as “little or no inhibition”. The compound also came in with a concentration for half-maximal inhibition (IC50) (IC50) greater than 3 mM. Compound `CCN1C(=O)c2ccccc2[S+]([O-])c2ccc(C(=O)NCCCN3CCOCC3)cc21` (stereo not drawn) [Inhibitor 83-13] gave an IC50 (IC50) greater than 3 mM.

Consider `CCN1C(=O)c2ccccc2[S+]([O-])c2ccc(C(=O)NCCCN3CCN(C)CC3)cc21` (stereo not drawn) [Inhibitor 83-14], for which, under “IC50”, the IC50 is greater than 3 mM. `CCN1C(=O)c2ccccc2[S+]([O-])c2ccc(C(=O)NCCCN3CCCCCC3)cc21` (stereo not drawn) [Inhibitor 83-15]: under “IC50”, the half-inhibitory concentration (IC50) is greater than 3 mM. Still for that read-out and setting: the result for `CCCN(CCC)CCCNC(=O)c1ccc2c(c1)N(CC)C(=O)c1ccccc1[S+]2[O-]` (stereo not drawn) [Inhibitor 83-16] reads greater than 3 mM; that for `CCCCN(CCCC)CCCNC(=O)c1ccc2c(c1)N(CC)C(=O)c1ccccc1[S+]2[O-]` (stereo not drawn) [Inhibitor 83-17], greater than 3 mM; that for `CCN1C(=O)c2ccccc2[S+]([O-])c2ccc(C(=O)NCCCSC3CCCCC3)cc21` (stereo not drawn) [Inhibitor 83-18], greater than 3 mM. `CCN1C(=O)c2ccccc2S(=O)(=O)c2ccc(C(=O)NCCCN3CCCCCC3)cc21` [Inhibitor 83-19]: the IC50 (IC50) was roughly 3 mM. In the case of `CCCCN(CC)CCCNC(=O)c1ccc2c(c1)N(CC)C(=O)c1ccccc1S2(=O)=O` [Inhibitor 83-20], the IC50 (IC50) is greater than 3 mM. As for `CCC1CCCCN1CCCNC(=O)c1ccc2c(c1)N(Cc1cccc(C)c1)C(=O)c1ccccc1S2(=O)=O` (stereo not drawn) [Inhibitor 83-21], the IC50 (IC50) was roughly 2 mM. `Cc1cccc(CN2C(=O)c3ccccc3S(=O)(=O)c3ccc(C(=O)NCCCN4CCCC4)cc32)c1` [Inhibitor 83-22]: under “IC50”, the half-maximal inhibitory concentration (IC50) was greater than 3 mM.

The compound `Cc1cccc(CN2C(=O)c3ccccc3S(=O)(=O)c3ccc(C(=O)NCCCN4CCCCCC4)cc32)c1` [Inhibitor 83-23] returned a half-maximal inhibitory concentration (IC50) (IC50) greater than 3 mM.

Turning to `CCCCN(C)CCCNC(=O)c1ccc2c(c1)N(Cc1cccc(C)c1)C(=O)c1ccccc1S2(=O)=O` [Inhibitor 83-24], it took 1.5 ± 0.5 mM to reach half-maximal inhibition (IC50) (IC50). As for `Cc1cccc(CN2C(=O)c3ccccc3S(=O)(=O)c3ccc(C(=O)NCCCN(C)C4CCCCC4)cc32)c1` [Inhibitor 83-25], the IC50 (IC50) was greater than 3 mM.

On to `O=C(NCCCN1CCN(c2cccc(Cl)c2)CC1)c1ccc2c(c1)N(Cc1ccc(Cl)cc1)C(=O)c1ccccc1S2(=O)=O` [Inhibitor 83-26], for which the “inhibition of MshC … on the remote amino residue” value is on record as “little or no inhibition”. Also, under “IC50”, the 50% inhibitory concentration (IC50) is greater than 3 mM. As for `CCC1CCCCN1CCCNC(=O)c1ccc2c(c1)N(Cc1ccc(Cl)cc1)C(=O)c1ccccc1S2(=O)=O` (stereo not drawn) [Inhibitor 83-27], the “inhibition of MshC in words … of protonation” value is reported as “measurable inhibition” and the “inhibition of MshC in words, Z is a benzyl moiety bearing one or more halogens” value is on record as “Measurable inhibition”. Also, the IC50 (IC50) stood at 0.7 ± 0.25 mM. For the same compound, the “inhibition of MshC in words … by X” value (X=S, X=SO, X=SO2) is listed as “Significant inhibition”.

As to `O=C(NCCCN1CCCC1)c1ccc2c(c1)N(Cc1ccc(Cl)cc1)C(=O)c1ccccc1S2(=O)=O` [Inhibitor 83-28], the “inhibition of MshC in words … of protonation” value is recorded as “measurable inhibition”; the “inhibition of MshC in words, Z is a benzyl moiety bearing one or more halogens” value was “Measurable inhibition”; the “inhibition of MshC in words … by X” value is “Significant inhibition”. The IC50 (IC50) was 0.25 ± 0.1 mM. Regarding `CC1CC(C)CN(CCCNC(=O)c2ccc3c(c2)N(Cc2ccc(Cl)cc2)C(=O)c2ccccc2S3(=O)=O)C1` (stereo not drawn) [Inhibitor 83-29], the IC50 (IC50) is greater than 3 mM. Still for that read-out and setting: to `CC1CCCCN1CCNC(=O)c1ccc2c(c1)N(Cc1ccc(Cl)cc1)C(=O)c1ccccc1S2(=O)=O` (stereo not drawn) [Inhibitor 83-30] belongs greater than 3 mM. In the case of `O=C(NCCCN1CCN(c2ccc(F)cc2)CC1)c1ccc2c(c1)N(Cc1ccc(Cl)cc1)C(=O)c1ccccc1S2(=O)=O` [Inhibitor 83-32], the “inhibition of MshC … on the remote amino residue” value is “little or no inhibition”. Where the note is “IC50”, this compound returned an IC50 of roughly 2 mM. The corresponding values for `O=C(NCCCN1CCC(Cc2ccccc2)CC1)c1ccc2c(c1)N(Cc1ccc(Cl)cc1)C(=O)c1ccccc1S2(=O)=O` [Inhibitor 83-33] are “little or no inhibition” and greater than 3 mM. For `CC(C)CN(CCCNC(=O)c1ccc2c(c1)N(Cc1ccc(Cl)cc1)C(=O)c1ccccc1S2(=O)=O)CC(C)C` [Inhibitor 83-34], the 50% inhibitory concentration (IC50) (IC50) was greater than 3 mM. Turning to `CN(CCCNC(=O)c1ccc2c(c1)N(Cc1ccc(Cl)cc1)C(=O)c1ccccc1S2(=O)=O)C1CCCCC1` [Inhibitor 83-35], under “IC50”, the IC50 stood at 0.35 ± 0.04 mM. Besides, where the note is “X=S, X=SO, X=SO2”, the “inhibition of MshC in words … by X” value is recorded as “Significant inhibition”. Under “IC50”, `CN(CCCNC(=O)c1ccc2c(c1)N(Cc1ccc(Cl)cc1)C(=O)c1ccccc1S2(=O)=O)c1ccccc1` [Inhibitor 83-36] displayed an IC50 greater than 3 mM. Take `O=C(NCCN1CCCC1)c1ccc2c(c1)N(Cc1ccccc1F)C(=O)c1ccccc1S2(=O)=O` [Inhibitor 83-39]: the “inhibition of MshC in words … of protonation” value was “measurable inhibition” and the “inhibition of MshC in words, Z is a benzyl moiety bearing one or more halogens” value is listed as “Measurable inhibition”. This compound also returned an IC50 (IC50) of 0.1 ± 0.02 mM. Also, the “inhibition of MshC in words … by X” value (X=S, X=SO, X=SO2) is “Significant inhibition”. Take `CC1CCCN(CCCNC(=O)c2ccc3c(c2)N(Cc2ccccc2F)C(=O)c2ccccc2S3(=O)=O)C1` (stereo not drawn) [Inhibitor 83-40]: the “inhibition of MshC in words … of protonation” value is recorded as “measurable inhibition” and the “inhibition of MshC in words, Z is a benzyl moiety bearing one or more halogens” value was “Measurable inhibition”. Further, the half-inhibitory concentration (IC50) (IC50) came out at 0.1 ± 0.03 mM. The “inhibition of MshC in words … by X” value (X=S, X=SO, X=SO2) is on record as “Significant inhibition”. For `O=C(NCCN1CCN(Cc2ccccc2)CC1)c1ccc2c(c1)N(Cc1ccccc1F)C(=O)c1ccccc1S2(=O)=O` [Inhibitor 83-42], the “inhibition of MshC … on the remote amino residue” value is recorded as “little or no inhibition”. This compound also displayed an IC50 (IC50) greater than 3 mM. Under “IC50”, `Cc1ccc(C)c(CN2C(=O)c3ccccc3S(=O)(=O)c3ccc(C(=O)NCCCN4CCOCC4)cc32)c1` [Inhibitor 83-43] registered a concentration for half-maximal inhibition (IC50) greater than 3 mM. Regarding `Cc1ccc(C)c(CN2C(=O)c3ccccc3S(=O)(=O)c3ccc(C(=O)NCCCN4CCCCCC4)cc32)c1` [Inhibitor 83-44], the “inhibition of MshC in words … of protonation” value is recorded as “measurable inhibition”. Under “IC50”, the IC50 is greater than 0.5 mM. Consider `Cc1ccc(C)c(CN2C(=O)c3ccccc3S(=O)(=O)c3ccc(C(=O)NCCN4CCCCC4C)cc32)c1` (stereo not drawn) [Inhibitor 83-45], for which the IC50 (IC50) is greater than 3 mM. Under “IC50”, `Cc1ccc(C)c(CN2C(=O)c3ccccc3S(=O)(=O)c3ccc(C(=O)NCCCN(C)C4CCCCC4)cc32)c1` [Inhibitor 83-46] came in with a half-maximal inhibitory concentration (IC50) of no less than 0.5 mM.
